# Reference: article PMC7998250, “Temperate Zone Plant Natural Products—A Novel Resource for Activity against Tropical Parasitic Diseases” (Pharmaceuticals, 2021)
# Tests used:
# [1] = test system: WT L. mexicana procyclic promastigotes; experiment: EC50 in WT L. mexicana promastigotes; assay type: cell-based; conditions: Leishmania mexicana, read-out: EC50 in WT promastigotes
# Protocol: (§1) A 700022-resistant line of L. mexicana (r22) was generated using a previously reported method (Figure S3). […] All leishmanicidal sterols identified were assayed against r22 after 8 weeks of 700022 pressure and cross-resistance was found against all four compounds, each with a similar resistance index of between 4–5 (Figure 6c). Following 28 weeks of selection, the morphology of the r22 promastigotes was compared to that of WT (Figure 6d). […] The body area of both promastigotes and amastigotes was also assessed, noting a small (c 20%) decrease in the body area of r22 parasites compared to WT strains (Figure S3).
# (§2) L. mexicana parasites were grown in increasing concentrations of 700022 in a stepwise manner, as previously described. […] A dose response assay of the newly selected promastigotes was completed as stated above, with the exception of the seeding density of 1 × 10^5 cells/mL. At this point, the drug pressure was increased to the concentration of the new EC50 value.
# [2] = test system: L. mexicana r22 promastigotes; experiment: EC50 in 700022-resistant L. mexicana (r22) promastigotes; assay type: cell-based; conditions: Leishmania mexicana, read-out: EC50 in r22 promastigotes, after 28 weeks of 700022 selection
# Protocol: as §1, §2
structure (smiles),measurement,setting,value
CC1=CC(O)(CC(C)C2(C)CC=C3C4=CCC5C(C)(C)C(O)CCC5(C)C4CCC32C)OC1=O (centres unmarked) [Compound 700022],EC50,[1],11.5 µM
same,EC50,[2],85.6 µM
